In US20230086703A1, “N-(4-(5-chloropyridin-3-yl)phenyl)-2-(2-(cyclopropanesulfonamido)pyrimidin-4-yl) butanamide derivatives and related compounds as human CTPS1 inhibitors for the treatment of proliferative diseases” (Step Pharma S.A.S., priority 2019, published 2023):
pIC50: −log10 of the molar value.

Assays:
human CTPS1 [1] = molecular target: T1, human CTPS1 (Homo sapiens, UniProt P17812); assay: RapidFire/MS-based enzyme selectivity assay (human CTPS1 versus CTPS2), CTPS1 isoform; format: biochemical
T1 construct: FLAG (with GG linker); His8 (with GG linker); purchased Proteros biostructures GmbH
T1 sequence (P17812 1-591): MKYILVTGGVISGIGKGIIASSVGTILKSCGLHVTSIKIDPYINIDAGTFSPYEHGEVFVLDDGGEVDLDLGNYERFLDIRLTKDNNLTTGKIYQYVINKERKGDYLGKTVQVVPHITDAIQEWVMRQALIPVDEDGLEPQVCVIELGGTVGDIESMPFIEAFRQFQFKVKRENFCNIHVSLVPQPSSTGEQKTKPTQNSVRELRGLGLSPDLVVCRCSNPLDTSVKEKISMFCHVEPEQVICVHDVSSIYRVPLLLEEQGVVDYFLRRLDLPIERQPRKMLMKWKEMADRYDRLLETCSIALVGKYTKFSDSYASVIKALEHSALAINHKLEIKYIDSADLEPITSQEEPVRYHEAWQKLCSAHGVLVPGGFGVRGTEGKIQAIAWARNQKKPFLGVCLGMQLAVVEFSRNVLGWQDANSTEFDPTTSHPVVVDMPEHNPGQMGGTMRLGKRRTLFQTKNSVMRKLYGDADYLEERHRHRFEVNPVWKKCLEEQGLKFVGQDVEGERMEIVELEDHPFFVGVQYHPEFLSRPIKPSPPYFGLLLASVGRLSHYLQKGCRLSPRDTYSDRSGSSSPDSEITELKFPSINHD
Outline: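 Full-length C-terminal FLAG-His-tagged CTPS1 (1-591) was preincubated 10 min at 25 °C with compound in HEPES pH 8.0 buffer with MgCl2, KCl, DTT and Tween-20. Reactions were started with a 2× mix of ATP 0.3 mM, UTP 0.2 mM, GTP 0.07 mM and L-glutamine 0.1 mM, and run in the linear phase at 25 °C. IC50 comes from the RapidFire-MS ratio of CTP to 13C9-15N3-CTP.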

human CTPS1 [2] = molecular target: T1, human CTPS1; assay: Human CTPS1 enzyme inhibition, ADP-Glo Max assay; format: biochemical; conditions: Table 12, ADP-Glo Max assay; read-out: CTPS1 (Human CTPS1 Enzyme Inhibition data grouped by potency range)
Outline: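 Read-out is ADP-Glo Max luminescence: residual ATP depleted (60 min), then produced ADP converted back to ATP for luciferase detection (60 min). Beforehand, protein and compound were mixed for 10 min at 25 °C in Tris buffer pH 8.0 with MgCl2, Tween-20 and 2 mM L-cysteine. Results expressed as percentage inhibition per concentration.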

[3] = RapidFire/MS IC50 values of CTPS1 and CTPS2, Table 17
[4] = Table 16, human CTPS1 over human CTPS2, RapidFire/MS IC50 values

With `CCOc1cncc(-c2ccc(NC(=O)C3(c4ccnc(NS(=O)(=O)C5CC5)n4)CCC(N4CCOCC4)CC3)nc2)n1` (centres unmarked) [P306] the “Selectivity (fold selectivity between CTPS1 and CTPS2)” value (human CTPS1 [1]; [3]) was “+++ (>60 fold (+++))” and the pIC50 (human CTPS1 [2]) was > 7.00.
With `CCOc1cncc(-c2ccc(NC(=O)C3(c4ccnc(NS(=O)(=O)C5CC5)n4)CCC(N(C)C4COC4)CC3)nc2)n1` (centres unmarked) [P307] the “Selectivity (fold selectivity between CTPS1 and CTPS2)” value (human CTPS1 [1]; [3]) was “+++ (>60 fold (+++))” and the pIC50 (human CTPS1 [2]) was > 7.00.
For `CCOc1cncc(-c2ccc(NC(=O)C3(c4ccnc(NS(=O)(=O)C5CC5)n4)CCC(N(C)CCOC)CC3)nc2)n1` (centres unmarked) [P308], the “Selectivity (fold selectivity between CTPS1 and CTPS2)” value (human CTPS1 [1]; [3]) was “+++ (>60 fold (+++))” and the pIC50 (human CTPS1 [2]) was > 7.00.
With `CCOc1cncc(-c2ccc(NC(=O)C3(c4ccnc(NS(=O)(=O)C5CC5)n4)CCC(N(C)CCOC)CC3)nc2)n1` (centres unmarked) [P309] the “Selectivity (fold selectivity between CTPS1 and CTPS2)” value (human CTPS1 [1]; [3]) was “+++ (>60 fold (+++))” and the pIC50 (human CTPS1 [2]) was 6.00 to 7.00.
With `CCOc1cncc(-c2ccc(NC(=O)C3(c4ccnc(NS(=O)(=O)C5CC5)n4)CCC(N4CCN(C)CC4)CC3)nc2)n1` (centres unmarked) [P312] the “Selectivity (fold selectivity between CTPS1 and CTPS2)” value (human CTPS1 [1]; [3]) was “+++ (>60 fold (+++))” and the pIC50 (human CTPS1 [2]) was > 7.00.
For `COC1CCC(C(=O)Nc2ccc(-c3cncc(C4CC4)n3)cn2)(c2ccnc(NS(=O)(=O)C3CC3)n2)CC1` (centres unmarked) [P313], the “Selectivity (fold selectivity between CTPS1 and CTPS2)” value (human CTPS1 [1]; [3]) was “+++ (>60 fold (+++))” and the pIC50 (human CTPS1 [2]) was > 7.00.
In the case of `CCOc1cncc(-c2ccc(NC(=O)C3(c4cncc(NS(=O)(=O)C5CC5)n4)CCN(S(C)(=O)=O)CC3)nc2)n1` [P314], the “Selectivity (fold selectivity between CTPS1 and CTPS2)” value (human CTPS1 [1]; [3]) was “+++ (>60 fold (+++))” and the pIC50 (human CTPS1 [2]) was > 7.00.
With `CS(=O)(=O)N1CCC(C(=O)Nc2ccc(-c3cncc(C4CC4)n3)cn2)(c2nccc(NS(=O)(=O)C3CC3)n2)CC1` [P315] the “Selectivity (fold selectivity between CTPS1 and CTPS2)” value (human CTPS1 [1]; [3]) was “+++ (>60 fold (+++))” and the pIC50 (human CTPS1 [2]) was > 7.00.
With `CCOc1cncc(-c2ccc(NC(=O)C3(c4nccc(NS(=O)(=O)C5CC5)n4)CCN(S(C)(=O)=O)CC3)nc2)n1` [P316] the “Selectivity (fold selectivity between CTPS1 and CTPS2)” value (human CTPS1 [1]; [3]) was “+++ (>60 fold (+++))” and the pIC50 (human CTPS1 [2]) was > 7.00.
In the case of `Cc1cc(-c2cncc(C(F)(F)F)n2)ccc1C(=O)NC1(c2csc(NS(=O)(=O)C3CC3)n2)CC1` [R83, N-(1-(2-(cyclopropanesulfon-amido)thiazol-4-yl)cyclopropyl)-2-methyl-4-(6-(trifluoromethyl)pyrazin-2-yl)benzamide], the “Selectivity (fold selectivity between CTPS1 and CTPS2)” value (human CTPS1 [1]; [4]) was “+++ (>60 fold (+++))”.
`O=C(NC1(c2csc(NS(=O)(=O)C3CC3)n2)CC1)c1ccc(-c2cncc(C(F)(F)F)n2)cc1` [R84, N-(1-(2-(cyclopropanesulfon-amido)thiazol-4-yl)cyclopropyl)-4-(6-(trifluoromethyl)pyrazin-2-yl)benzamide] was tested, and the “Selectivity (fold selectivity between CTPS1 and CTPS2)” value (human CTPS1 [1]; [4]) was “+++ (>60 fold (+++))”.
For `CCc1cncc(-c2ccc(C(=O)NC(CCOC)c3csc(NS(=O)(=O)C4CC4)n3)c(F)c2)n1` (centres unmarked) [R86, N-(1-(2-(cyclopropanesulfon-amido)thiazol-4-yl)-3-methoxypropyl)-4-(6-ethyl-pyrazin-2-yl)-2-fluorobenzamide], the “Selectivity (fold selectivity between CTPS1 and CTPS2)” value (human CTPS1 [1]; [4]) was “+++ (>60 fold (+++))”.
In the case of `COCCC(NC(=O)c1ccc(-c2cncc(C(F)(F)F)n2)cc1F)c1csc(NS(=O)(=O)C2CC2)n1` (centres unmarked) [R87, N-(1-(2-(cyclopropanesulfon-amido)thiazol-4-yl)-3-methoxypropyl)-2-fluoro-4-(6-(trifluoromethyl)pyrazin-2-yl)benzamide], the “Selectivity (fold selectivity between CTPS1 and CTPS2)” value (human CTPS1 [1]; [4]) was “++ (>30-60 fold (++))”.
With `CCOc1cncc(-c2ccc(C(=O)NC(CCOC)c3csc(NS(=O)(=O)C4CC4)n3)c(F)c2)n1` (centres unmarked) [R88, N-(1-(2-(cyclopropanesulfon-amido)thiazol-4-yl)-3-methoxypropyl)-4-(6-ethoxypyrazin-2-yl)-2-fluorobenzamide] the “Selectivity (fold selectivity between CTPS1 and CTPS2)” value (human CTPS1 [1]; [4]) was “+++ (>60 fold (+++))”.
With `COCCC(NC(=O)c1ccc(-c2cncc(OC(C)C)n2)cc1F)c1csc(NS(=O)(=O)C2CC2)n1` (centres unmarked) [R89, N-(1-(2-(cyclopropanesulfon-amido)thiazol-4-yl)-3-methoxypropyl)-2-fluoro-4-(6-isopropoxypyrazin-2-yl)benzamide] the “Selectivity (fold selectivity between CTPS1 and CTPS2)” value (human CTPS1 [1]; [4]) was “+++ (>60 fold (+++))”.
With `CCOc1cncc(-c2ccc(C(=O)NC(CCOC)c3csc(NS(=O)(=O)C4CC4)n3)cc2)n1` (centres unmarked) [R90, N-(1-(2-(cyclopropanesulfon-amido)thiazol-4-yl)-3-methoxypropyl)-4-(6-ethoxy-pyrazin-2-yl)benzamide] the “Selectivity (fold selectivity between CTPS1 and CTPS2)” value (human CTPS1 [1]; [4]) was “++ (>30-60 fold (++))”.
In the case of `CCOc1cncc(-c2ccc(C(=O)NC(C)c3csc(NS(=O)(=O)C4CC4)n3)c(F)c2)n1` (centres unmarked) [R91, N-(1-(2-(cyclopropanesulfon-amido)thiazol-4-yl)ethyl)-4-(6-ethoxypyrazin-2-yl)-2-fluorobenzamide], the “Selectivity (fold selectivity between CTPS1 and CTPS2)” value (human CTPS1 [1]; [4]) was “+++ (>60 fold (+++))”.
